Holding throughout (assay type): functional
Assay [1] is filed under the species Rattus norvegicus. Briefly: Myorelaxant activity of the compound against insulin secretion in the pancreatic islets ofrat; (activity expressed as ED50). To be noted: read-out: ED50 (the source's name).
The species named for assay [2] is Rattus norvegicus. The assay can be described thus: Percentage of residual insulin secretion value in the pancreatic islets of rat after treatment with the compound at 10 uM concentration.
The species entered for assay [3] is Rattus norvegicus. Briefly: Myorelaxant effect on 30 mM KCl induced rat aorta rings determined after incubated with the 10 uM glibenclamide in the medium; (activity expressed as ED50). To be noted: read-out: ED50 (the source's name).
The species entered for assay [4] is Rattus norvegicus. Briefly: Myorelaxant effect on 80 mM KCl induced rat aorta rings determined; (activity expressed as ED50). Conditions: read-out: ED50 (the source's name).
Assay [5] is filed under the species Rattus norvegicus. Briefly: Myorelaxant effect on 30 mM KCl induced rat aorta rings determined after incubated with the 1 uM glibenclamide in the medium; (activity expressed as ED50). To be noted: read-out: ED50 (the source's name).
The species entered for assay [6] is Rattus norvegicus. Briefly: Myorelaxant effect on 30 mM KCl induced rat aorta rings determined; (activity expressed as ED50). Conditions: read-out: ED50 (the source's name).
The species named for assay [7] is Rattus norvegicus. Briefly: Myorelaxant effect of the compound on 30 mM KCl induced rat aorta rings determined after incubated with the 10 uM glibenclamide in the medium; (activity expressed as ED50). To be noted: read-out: ED50 (the source's name).
The species entered for assay [8] is Rattus norvegicus. Briefly: Myorelaxant effect of the compound on 80 mM KCl induced rat aorta rings determined; (activity expressed as ED50). To be noted: read-out: ED50 (the source's name).
The species entered for assay [9] is Rattus norvegicus. The assay can be described thus: Inhibitory concentration against rat vascular smooth muscle tissue.
The species entered for assay [10] is Rattus norvegicus. Briefly: Myorelaxant effect of the compound on 30 mM KCl induced rat aorta rings determined after incubated with the 0 uM glibenclamide in the medium; (activity expressed as ED50). To be noted: read-out: ED50 (the source's name).
The species entered for assay [11] is Rattus norvegicus. The assay can be described thus: Myorelaxant effect of the compound on 30 mM KCl induced rat aorta rings determined after incubated with the 1 uM glibenclamide in the medium; (activity expressed as ED50). To be noted: read-out: ED50 (the source's name).

For the molecule `CCNC(=O)NC1CC(C)(C)Oc2ccc(F)cc21` (stereo not given), the EC50 in assay [1] was 42.9 µM. In assay [2], this molecule returned a Residual secretion of 106.2%.

In the case of `CCNC(=S)NC1CC(C)(C)Oc2ccc(Br)cc21` (stereo not given), the EC50 in assay [1] is 3.7 µM. Moreover, in assay [2], the Residual secretion turned out to be 80.8%.

In the case of `Cc1ccc(S(=O)(=O)NC(=O)NC2CC(C)(C)Oc3ccc(Cl)cc32)cc1` (stereo not given), in [1], the EC50 stood at 63.6 µM. Further, the Residual secretion in [2] is 103.5%.

On to `CCNC(=O)NC1CC(C)(C)Oc2ccc(Cl)cc21` (stereo not given), for which, in assay [1], the EC50 was 6.8 µM. In assay [2], the Residual secretion came out at 89.5%.

Consider `CC(C)NC(=O)NC1CC(C)(C)Oc2ccc(F)cc21` (stereo not given), for which, in [1], the EC50 was determined as 109 µM. In assay [2], the Residual secretion worked out at 98.4%.

In the case of `CC(=O)NC1CC(C)(C)Oc2ccc(F)cc21` (stereo not given), the EC50 in [1] came out at 46.5 µM. This molecule also came in with a Residual secretion in assay [2] of 83.8%.

In the case of `CC1(C)CC(NC(=O)NCc2ccccc2)c2cc(Cl)ccc2O1` (stereo not given), the EC50 in [1] was found to be 15.3 µM. Further, in [2], the Residual secretion amounted to 67.1%.

`CCNC(=S)NC1CC(C)(C)Oc2ccc(F)cc21` (stereo not given): the EC50 in [1] came out at 17.6 µM. The Residual secretion in [2] worked out at 82.5%.

As for `CCOC(=O)NC1CC(C)(C)Oc2ccc(Br)cc21` (stereo not given), the EC50 in assay [1] is 25.7 µM. In addition, the Residual secretion in assay [2] turned out to be 88.8%.

As for `CC1(C)CC(NC(=O)NCc2ccccc2)c2cc(Br)ccc2O1` (stereo not given), the EC50 in assay [1] is above 300 µM. For the same molecule, the Residual secretion in [2] came out at 58.5%.

As to `CC1(C)CC(NC(=S)NCc2ccccc2)c2cc(Br)ccc2O1` (stereo not given), the EC50 in assay [1] was found to be 24.8 µM. The same molecule registered a Residual secretion in [2] of 51.8%.

As for `CC1(C)CC(NC(=O)NS(=O)(=O)c2ccccc2)c2cc(Cl)ccc2O1` (stereo not given), the EC50 in assay [1] was determined as 210 µM. In addition, the Residual secretion in assay [2] came to 94.7%.

For `CC1(C)CC(NC(=S)NCc2ccccc2)c2cc(F)ccc2O1` (stereo not given), the EC50 in assay [1] was determined as 4.3 µM. The Residual secretion in assay [2] stood at 54.4%.

On to `CC(=O)NC1CC(C)(C)Oc2ccc(Br)cc21` (stereo not given), for which the EC50 in assay [1] is 6.4 µM. In assay [2], this molecule showed a Residual secretion of 94.2%.

Turning to `CC1(C)CC(NC(=O)NS(=O)(=O)c2ccc(Cl)cc2)c2cc(Cl)ccc2O1` (stereo not given), in [1], the EC50 was found to be 51 µM. The Residual secretion in assay [2] is 89.2%.

Take `CC(C)NC(=O)NC1CC(C)(C)Oc2ccc(Br)cc21` (stereo not given): the EC50 in assay [1] is above 300 µM. Moreover, in assay [2], the Residual secretion stood at 79.1%.

For the molecule `CCNC(=O)NC1CC(C)(C)Oc2ccc(Br)cc21` (stereo not given), the EC50 in assay [1] was found to be 7.6 µM. The molecule further displayed a Residual secretion in assay [2] of 91.5%.

As for `CCOC(=O)NC1CC(C)(C)Oc2ccc(Cl)cc21` (stereo not given), the EC50 in assay [1] came to 38.5 µM. In addition, in assay [2], the Residual secretion is on record as 83.3%.

Consider `CC1(C)CC(NC(=S)NCc2ccccc2)c2cc(Cl)ccc2O1` (stereo not given), for which the EC50 in [1] was found to be 20.2 µM. Also, the Residual secretion in assay [2] is given as 45.4%.

Take `CC(C)NC(=S)NC1CC(C)(C)Oc2ccc(Br)cc21` (stereo not given): the EC50 in assay [1] came to 8.7 µM. The same molecule showed a Residual secretion in assay [2] of 58.9%.

In the case of `CC1(C)CC(NC(=O)NCc2ccccc2)c2cc(F)ccc2O1` (stereo not given), in assay [2], the Residual secretion is 80.8%.

Turning to `CC(C)NC(=S)NC1CC(C)(C)Oc2ccc(Cl)cc21` (stereo not given), the EC50 in [1] was 10.9 µM. The same molecule registered a Residual secretion in [2] of 83.3%.

`CCOC(=O)NC1CC(C)(C)Oc2ccc(F)cc21` (stereo not given): the EC50 in [1] was determined as 72.4 µM. Moreover, the Residual secretion in [2] turned out to be 100.8%.

For the molecule `CC(C)NC(=O)NC1CC(C)(C)Oc2ccc(Cl)cc21` (stereo not given), the EC50 in assay [1] came out at 144 µM. This molecule came in with a Residual secretion in assay [2] of 86.3%.

In the case of `CC(=O)NC1CC(C)(C)Oc2ccc(Cl)cc21` (stereo not given), the EC50 in [3] was 44.6 µM; in assay [4], 84.2 µM; in [5], 33.8 µM; in assay [6], 6.3 µM; in [1] it was 6.6 µM. In assay [2], this molecule registered a Residual secretion of 100.8%.

`CC(C)NC(=S)NC1CC(C)(C)Oc2ccc(F)cc21` (stereo not given): the EC50 in assay [1] was 18.5 µM. The same molecule came in with a Residual secretion in [2] of 88.7%.

Regarding `CCNC(=S)NC1CC(C)(C)Oc2ccc(Cl)cc21` (stereo not given), in assay [1], the EC50 was 8.2 µM. Also, the Residual secretion in assay [2] is 96.5%.

On to `CC1(C)Oc2ccc(C#N)cc2C(N2CCCC2=O)C1O` (stereo not given) [CROMAKALIM], for which the EC50 is 15.2 µM in [7]; above 300 µM in assay [8]; 0.14 µM in assay [10]; 0.13 µM in assay [1]; 1.8 µM in assay [11]. In assay [9], this molecule gave an IC50 of 0.13 µM. The molecule also displayed a Residual secretion in [2] of 94.7%.

Regarding `CC1=Nc2ccc(Cl)cc2S(=O)(=O)N1` [DIAZOXIDE], half-maximal inhibition in [9] (IC50) was put at 23.8 µM. Moreover, in assay [1], the EC50 was 23.8 µM. Further, the Residual secretion in assay [2] is given as 71.7%.

In the case of `CC(N/C(=N\C#N)Nc1ccncc1)C(C)(C)C` (stereo not given) [PINACIDIL ANHYDROUS], the IC50 in [9] was 0.35 µM. Besides, in [1], the EC50 amounted to 0.35 µM. This molecule displayed a Residual secretion in [2] of 96%.

Values taken from ChEMBL document CHEMBL1141185, “4,6-Disubstituted 2,2-dimethylchromans structurally related to the K(ATP) channel opener cromakalim: design, synthesis, and effect on insulin release and vascular tone” (J Med Chem, 2005).
